Measured values: patent US20250281457A1, “TREATMENT OR PREVENTION OF DENGUE VIRAL INFECTION” (Janssen Pharmaceuticals, Inc., priority 2022, published 2025)
Like-named read-outs stand apart in the source and are kept apart here.

Experiment: Effect of food on plasma pharmacokinetics after single oral dose of SF2a/b (Example 2)
Assay type: in vivo, human
Settings: both sexes, human, plasma, oral; for Tmax: read-out: tmax, Median
Method: The effect of food on the pharmacokinetics (PK) of Compound (a) was assessed in healthy participants after a single oral dose of SF2a/b, described in Example 1, administered at different dose levels in a randomized single dose, 2-period crossover study. The effect of food on the PK of Compound (a) was determined at 3 different dose levels (50 mg, 200 mg, and 800 mg) for a standardized breakfast; at one dose level (800 mg) for a high-fat, high-calorie breakfast; at two dose levels (200 mg and 800 mg) for a low-fat, low-calorie breakfast, as well as for a low-fat, high-calorie breakfast. 124 healthy adult participants (male and female, 18 to 55 years of age) were enrolled in this study. The volunteers were divided in six panels, which were organized as follows: • Panel […]: • Treatment D: A single 800-mg dose (4×200-mg tablets) of Compound (a) SF2b in fasted conditions. • Treatment E: A single 800-mg dose (4×200-mg tablets) of Compound (a) SF2b in fed conditions (standardized breakfast). • Treatments D and E (treatment sequence group 1 [n=8]: DE; treatment sequence group 2 [n=8]: ED). Panel 4, n=14: • Treatment F: A single 200-mg dose (1×200-mg tablet) of Compound (a) SF2b in fasted conditions. • Treatment G: A single 200-mg dose (1×200-mg tablet) of Compound (a) SF2b, in fed conditions (standardized breakfast). • Treatments F and G (treatment sequence group 1 [n=7]: FG; treatment sequence group 2 [n=7]: GF). Panel […]: • Treatment H: A single 50-mg dose (1×50-mg tablet) of Compound (a) SF2a in fasted conditions. • Treatment I: A single 50-mg dose (1×50-mg tablet) of Compound (a) SF2a in fed conditions (standardized breakfast). • Treatments H and I (treatment sequence group 1 [n=7]: HI; treatment sequence group 2 [n=7]: IH). Panel 6 (n=16): • Treatment J: single 800-mg dose (4×200-mg tablets) of Compound (a) administered as SF2b in fasted conditions. • Treatment K: single 800-mg dose (4×200-mg tablets) of Compound (a) administered as SF2b in fed conditions (high-fat, high-calorie breakfast). • Treatments J and K (treatment sequence group 1 [n=8]: JK; treatment sequence group 2 [n=8]: KJ). Panel 7 (n=32): • Treatment L: single 800-mg dose (4×200-mg tablets) of Compound (a) administered as SF2b in fed conditions (low-fat, low-calorie breakfast). • Treatment M: single 800-mg dose (4×200-mg tablets) of Compound (a) administered as SF2b in fed conditions (low-fat, high-calorie breakfast). • Treatment L (n=16) or Treatment M (n=16). Panel 8 (n=32): • Treatment N: single 200-mg dose (1×200-mg tablet) of Compound (a) administered as SF2b in fed conditions (low-fat, low-calorie breakfast). • Treatment O: single 200-mg dose (1×200-mg tablet) of Compound (a) administered as SF2b in fed conditions (low-fat, high-calorie breakfast). • Treatment N (n=16) or Treatment O (n=16). Tablets were administered orally, together with approximately 240 mL of non-carbonated water, in fasted or fed conditions. […] On day 1 of all treatments in each panel, the participants had fasted overnight for at least 10 hours before study drug intake. Intake of water was not allowed from 2 hours before and until 2 hours after study drug intake, except for the water used for study drug intake and breakfast. In case of intake in fed conditions, study drug was administered within 10 minutes after completing a standardized breakfast (Treatments E, G, and I), or a high-fat, high-calorie breakfast (Treatment K), a low-fat, low-calorie breakfast (Treatments L and N), or a low-fat, high-calorie breakfast (Treatments M and O). For treatments E, G, and I a standardized breakfast was served, consisting of (or its equivalent) 4 slices of bread, 2 slices of ham or cheese, butter, jelly, and 1 or 2 cups (up to 355 mL) of decaffeinated coffee or tea with milk and/or sugar, if desired (containing approximately: fat: 21 g, carbohydrates: 67 g, proteins: 19 g; total calories: 533 kcal). For treatment K in a high-fat, high-calorie breakfast was served. […]

AUC(0-inf) (200 mg, 200 mg SF2b, fed, standardized breakfast (Tables 5E, 5G), read-out: AUC∞, Geometric LS Means Treatment G): 103 µg·h/mL | Cmax (200 mg, 200 mg SF2b, fed, standardized breakfast (Tables 5E, 5G), read-out: Cmax, Geometric LS Means Treatment G): 961 ng/mL | AUC(0-t) (200 mg, 200 mg SF2b, standardized breakfast, linear mixed effects model (Table 5B), read-out: AUClast, Geometric Mean Treatment G): 102 µg·h/mL | AUC(0-inf) (200 mg, 200 mg SF2b, standardized breakfast, linear mixed effects model (Table 5B), read-out: AUC∞, Geometric Mean Treatment G): 104 µg·h/mL | Cmax (200 mg, 200 mg SF2b, standardized breakfast, linear mixed effects model (Table 5B), read-out: Cmax, Geometric Mean Treatment G): 984 ng/mL | AUC(0-t) (200 mg, Treatment F: single 200 mg (SF2b), fasted, read-out: AUClast, Geo. Mean): 61.1 µg·h/mL | AUC(0-t) (200 mg, Treatment F: single 200 mg (SF2b), fasted, read-out: AUClast, Mean): 64.8 µg·h/mL | AUC(0-t) (200 mg, Treatment F: single 200 mg (SF2b), fasted, read-out: AUClast, Median): 59 µg·h/mL | AUC(0-inf) (200 mg, Treatment F: single 200 mg (SF2b), fasted, read-out: AUC∞, Geo. Mean): 59.6 µg·h/mL | AUC(0-inf) (200 mg, Treatment F: single 200 mg (SF2b), fasted, read-out: AUC∞, Mean): 62 µg·h/mL | AUC(0-inf) (200 mg, Treatment F: single 200 mg (SF2b), fasted, read-out: AUC∞, Median): 58.5 µg·h/mL | Cmax (200 mg, Treatment F: single 200 mg (SF2b), fasted, read-out: Cmax, Geo. Mean): 573 ng/mL | Cmax (200 mg, Treatment F: single 200 mg (SF2b), fasted, read-out: Cmax, Mean): 602 ng/mL | Cmax (200 mg, Treatment F: single 200 mg (SF2b), fasted, read-out: Cmax, Median): 580 ng/mL | half-life (200 mg, Treatment F: single 200 mg (SF2b), fasted, read-out: t1/2, term, Geo. Mean (converted)): 188 h | half-life (200 mg, Treatment F: single 200 mg (SF2b), fasted, read-out: t1/2, term, Mean (converted)): 205 h | half-life (200 mg, Treatment F: single 200 mg (SF2b), fasted, read-out: t1/2, term, Median (converted)): 174 h | Tmax (200 mg, Treatment F: single 200 mg (SF2b), fasted): 7.5 h | AUC(0-t) (200 mg, Treatment G: single 200 mg (SF2b), fed, standardized breakfast, read-out: AUClast, Geo. Mean): 97.2 µg·h/mL | AUC(0-t) (200 mg, Treatment G: single 200 mg (SF2b), fed, standardized breakfast, read-out: AUClast, Mean): 100 µg·h/mL | AUC(0-t) (200 mg, Treatment G: single 200 mg (SF2b), fed, standardized breakfast, read-out: AUClast, Median): 89.5 µg·h/mL | AUC(0-inf) (200 mg, Treatment G: single 200 mg (SF2b), fed, standardized breakfast, read-out: AUC∞, Geo. Mean): 102 µg·h/mL | AUC(0-inf) (200 mg, Treatment G: single 200 mg (SF2b), fed, standardized breakfast, read-out: AUC∞, Mean): 106 µg·h/mL | AUC(0-inf) (200 mg, Treatment G: single 200 mg (SF2b), fed, standardized breakfast, read-out: AUC∞, Median): 95.3 µg·h/mL | Cmax (200 mg, Treatment G: single 200 mg (SF2b), fed, standardized breakfast, read-out: Cmax, Geo. Mean): 961 ng/mL | Cmax (200 mg, Treatment G: single 200 mg (SF2b), fed, standardized breakfast, read-out: Cmax, Mean): 996 ng/mL | Cmax (200 mg, Treatment G: single 200 mg (SF2b), fed, standardized breakfast, read-out: Cmax, Median): 892 ng/mL | half-life (200 mg, Treatment G: single 200 mg (SF2b), fed, standardized breakfast, read-out: t1/2, term, Geo. Mean (converted)): 193 h | half-life (200 mg, Treatment G: single 200 mg (SF2b), fed, standardized breakfast, read-out: t1/2, term, Mean (converted)): 198 h | half-life (200 mg, Treatment G: single 200 mg (SF2b), fed, standardized breakfast, read-out: t1/2, term, Median (converted)): 208 h | Tmax (200 mg, Treatment G: single 200 mg (SF2b), fed, standardized breakfast): 8 h | AUC(0-t) (800 mg, 800 mg SF2b, fasted, linear mixed effects model (Table 5A), read-out: AUClast, Geometric Mean Treatment D): 140 µg·h/mL | AUC(0-inf) (800 mg, 800 mg SF2b, fasted, linear mixed effects model (Table 5A), read-out: AUC∞, Geometric Mean Treatment D): 148 µg·h/mL | Cmax (800 mg, 800 mg SF2b, fasted, linear mixed effects model (Table 5A), read-out: Cmax, Geometric Mean Treatment D): 1220 ng/mL | AUC(0-t) (800 mg, 800 mg SF2b, fasted, read-out: AUClast, Geometric LS Means Treatment J): 107 µg·h/mL | AUC(0-inf) (800 mg, 800 mg SF2b, fasted, read-out: AUC∞, Geometric LS Means Treatment J): 110 µg·h/mL | Cmax (800 mg, 800 mg SF2b, fasted, read-out: Cmax, Geometric LS Means Treatment J): 991 ng/mL | AUC(0-t) (800 mg, 800 mg SF2b, fed, high-fat, high-calorie breakfast, read-out: AUClast, Geometric LS Means Treatment K): 421 µg·h/mL | AUC(0-inf) (800 mg, 800 mg SF2b, fed, high-fat, high-calorie breakfast, read-out: AUC∞, Geometric LS Means Treatment K): 422 µg·h/mL
Structure (SMILES): COc1cc(NC(C(=O)c2c[nH]c3ccc(OC(F)(F)F)cc23)c2ccc(Cl)cc2OC)cc(S(C)(=O)=O)c1 (stereo not drawn) [Compound (a)]
